The target in experiment [1] is T1, PIK3R1 (Homo sapiens, UniProt P27986).
T1 construct: Dose response pull-down experiments were accomplished in Colo205 lysates; endogenous in cells; host or cells: Colo205 cell lysate
Kind of experiment: Dose response competition pull-down with free compound 1 against immobilized probe 1 in Colo205 lysate. The experiment is classed as binding. As to conditions: Colo205 cell lysate, free compound 1 competing with immobilized probe 1. On the procedure: (§1) A competitive binding experiment was performed to validate the results obtained under pervanadate-depletion conditions (Additional file 4). Dose response pull-down experiments were accomplished in Colo205 lysates with increasing concentrations of the free compound 1 that competes with the immobilized probe 1 for SH2 domain binding (Additional file 5). […] Additionally, these findings underscore the results of the pervanadate depletion experiments that indicate that the regulatory PI3 kinase subunits specifically interact with probe 1 via an SH2 domain. The regulatory PI3K subunits PI3KR1 and PI3KR2 contain a C-terminal and an N-terminal SH2 domain. The real IC50 values are likely smaller than the measured values for PI3KR1 and PI3KR2, since it is impossible to distinguish whether one of the two domains or both simultaneously interact with equal affinity with probe 1[35].
(§2) Figure 5 Dose-response curves. Pulldown experiments were conducted using probe 1 with Colo205 cell lysate and increasing concentrations of the free compound 1.
(§3) SH2 probe pulldowns were performed as described previously. […]
(§4) Raw MS data were processed by MaxQuant (v1.4.0.5) for peak detection and quantification […]

The target of experiment [2] is T2, PIK3R2 (Homo sapiens, UniProt O00459).
T2 construct: Dose response pull-down experiments were accomplished in Colo205 lysates; endogenous in cells; host or cells: Colo205 cell lysate
Described as above. It counts as binding. The conditions noted are these: Colo205 cell lysate, free compound 1 competing with immobilized probe 1. On the procedure: as §1, §2, §3, §4

Experiment [3] relates to regulatory PI3K subunits. Described as above. It counts as binding, human. The conditions noted are these: Colo205 lysates, competition with immobilized probe 1; read-out: IC50 values for the captured regulatory PI3K subunits. The procedure:
as §1, §3

The test system of experiment [4] is SH2 proteins. Kind of experiment: Dose response competition pull-down in Colo205 lysate. The experiment is classed as binding, human. As to conditions: increasing free compound 1. On the procedure: as §1, §3
The target in experiment [5] is T3, tubulin beta chain (TBB) (Homo sapiens, UniProt P07437).
T3 construct: Dose response pull-down experiments were accomplished in Colo205 lysates; endogenous in cells; host or cells: Colo205 cell lysate
Described as above. The experiment is classed as binding. As to conditions: increasing free compound 1. On the procedure:
as §1, §3

One may read the IC50 as the point on the concentration scale where inhibition reaches its midpoint. Take `CCCCCN(CCOCCOCCN)C(=O)[C@H](CCC(=O)O)NC(=O)[C@H](Cc1ccc(C(F)(F)P(=O)(O)O)cc1)NC(C)=O` [probe 1]: the figures for the IC50 in experiment [1], in experiment [2] and in experiment [3] were 10.3 µM, 22.6 µM and 10 to 23 µM, respectively. Moreover, the “dose dependence of captured SH2 proteins in the competition experiment” value in experiment [4] is on record as “dose dependent decrease”. Moreover, the “dose dependence of tubulin beta chain (TBB) in the competition experiment” value in experiment [5] is “do not show dose dependent decrease”.
